Results published in patent US20220257569A1, “INDOLE-OXADIAZOLE COMPOUNDS AND THEIR THERAPEUTIC USE” (THE GOVERNING COUNCIL OF THE UNIVERSITY OF TORONTO, priority 2018, published 2022).

Key:
cannabinoid CB1 receptor = biological target: T1, cannabinoid CB1 receptor (Homo sapiens, UniProt P21554); test: PathHunter β-Arrestin assay (allosteric inhibition of agonist Emax); assay type: cell-based; settings: HEK293 CB1 β-arrestin cells; concentration of modulator giving 50% reduction in agonist Emax; 60 min pre-incubation
T1 construct: host or cells: HEK293 CB1 β-arrestin cells
Text: PathHunter™ enzyme fragment complementation is the most important method to measure β-arrestin recruitment. PathHunter™ β-Arrestin assays developed by DiscoveRX are revolutionary high-throughput screening assays for monitoring GPCR activation following ligand stimulation, without an imaging instrument, fluorescent protein tag, or radioactivity.
Instead, the assays detect GPCR activation through binding of β-arrestin to the expressed GPCR of interest, and measure the interaction of the two proteins using enzyme fragment complementation (EFC). The EFC approach offers a range of benefits for screening, including signal amplification and robust performance.
The larger portion of β-gal, termed EA for enzyme acceptor, is fused to the C-terminus of β-arrestin. The smaller, complementing fragment of β-gal, the ProLink™ tag, is expressed as a fusion protein with the GPCR of interest at the C-terminus. Upon activation, the GPCR is bound by β-arrestin. The interaction of β-arrestin and the GPCR forces the interaction of ProLink and EA, thus allowing complementation of the two fragments of β-gal and the formation of a functional enzyme capable of hydrolyzing substrate and generating a […] signal.
Using the PathHunter™ CB1 kit from DiscoveRX, a cannabinoid CB1 receptor agonist is added and activates the receptor, EA, which is fused to the C-terminus of β-arrestin, and then interacts with the ProLink™ tag which is fused to the CB1 receptor. This will result in the […] signal that is recorded by a luminescence plate reader. The […] signal is directly related to the activation of the receptor, therefore a higher concentration of agonist will yield a larger […] signal. The cannabinoid agonist is added in increasing concentrations to obtain an agonist dose response curve. With pre-incubation of a potential allosteric modulator, either an enhancement of agonist activity with an allosteric enhancer or a decrease in the maximal response of the agonist with an allosteric inhibitor is expected.
All raw data are obtained as luminescence (relative light units), and are normalised and presented as a percentage of the maximal response for the cannabinoid CB1 receptor agonist CP55,940 (2-[(1R,2R,5R)-5-hydroxy-2-(3-hydroxypropyl)cyclohexyl]-5-(2-methyloctan-2-yl)phenol).
The PathHunter™ β-Arrestin assay (from DiscoveRX, Fremont, USA) was performed as follows. HEK293 CB1 β-arrestin cells were plated 48 hours before use and incubated at 37° C., 5% CO2 in a humidified incubator. Test compounds were dissolved in dimethylsulfoxide (DMSO) and diluted in optimized cell culture (OCC, as supplied by DiscoveRX) media to the required concentrations. 5 μL of test compound or vehicle solution was added to each well and incubated for 60 minutes at 37° C., 5% CO2 in a humidified incubator. 5 μL of increasing concentrations of anandamide was added to each well followed by a 90-minute incubation at 37° C., 5% CO2 in a humidified incubator. 55 μL of detection reagent (as supplied by DiscoveRX) was then added, followed by a further 90 minute incubation at room temperature in the dark. Chemiluminescence, reported in relative light units (RLU—a dimensionless value, standardised as a % of maximum stimulation with anandamide), was measured on a standard luminescence plate reader.
Data were plotted as % of maximal stimulation (Emax) caused by agonist versus the logarithm of concentration of agonist, in the presence or absence of a fixed concentration of test compound (modulator) or vehicle. For example, stimulation in the presence of agonist alone will give a value for stimulation expressed in RLU, which can be expressed as a range from 0% (at lowest agonist concentration, e.g., 1 nM) to 100% (at the highest agonist concentration, e.g., 10 μM). […]

T1 sequence (P21554 whole entry): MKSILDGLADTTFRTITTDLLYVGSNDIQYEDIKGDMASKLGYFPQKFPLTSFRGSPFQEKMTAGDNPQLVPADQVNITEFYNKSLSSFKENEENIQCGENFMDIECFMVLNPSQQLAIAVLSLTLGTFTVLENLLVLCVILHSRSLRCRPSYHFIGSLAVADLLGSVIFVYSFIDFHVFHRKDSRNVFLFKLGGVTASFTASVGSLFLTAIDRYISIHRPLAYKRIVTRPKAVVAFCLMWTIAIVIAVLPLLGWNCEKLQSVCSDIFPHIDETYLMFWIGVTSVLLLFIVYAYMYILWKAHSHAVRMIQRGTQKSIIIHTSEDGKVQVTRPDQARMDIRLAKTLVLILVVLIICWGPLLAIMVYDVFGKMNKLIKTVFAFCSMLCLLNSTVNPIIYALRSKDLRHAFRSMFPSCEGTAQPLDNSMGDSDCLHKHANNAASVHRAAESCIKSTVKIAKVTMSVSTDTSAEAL

| Structure (SMILES) | IC50 (cannabinoid CB1 receptor) [µM] | melting point [°C] |
| --- | --- | --- |
| Cc1c(-c2nnc(NCCc3ccccc3)o2)[nH]c2ccc(Cl)cc12 [ABM319, 5-(5-Chloro-3-methyl-1H-indol-2-yl)-N-phenethyl-1,3,4-oxadiazol-2-amine] | 0.001 | 195 to 197 |
| CCc1c(-c2nnc(NCCc3ccccc3)o2)[nH]c2ccc(Cl)cc12 [ABM317, 5-(5-Chloro-3-ethyl-1H-indol-2-yl)-N-phenethyl-1,3,4-oxadiazol-2-amine] | 0.0005 | 175 to 177 |
| CCc1c(-c2nnc(SCCc3ccccc3)o2)[nH]c2ccc(Br)cc12 [ABM325] | 0.315 | 185 to 186 |
| CCc1c(-c2nnc(Nc3ccccc3)o2)[nH]c2ccc(Br)cc12 [ABM312, 5-(5-Bromo-3-ethyl-1H-indol-2-yl)-N-phenyl-1,3,4-oxadiazol-2-amine] | 0.001 | 240 to 242 |
| Clc1ccc2[nH]c(-c3nnc(Nc4ccccc4)o3)cc2c1 [ABM310, 5-(5-Chloro-1H-indol-2-yl)-N-phenyl-1,3,4-oxadiazol-2-amine] | 0.003 | 272 to 274 |
| CCc1c(-c2nnc(SCc3ccc(OC)cc3)o2)[nH]c2ccc(Br)cc12 [ABM309, 2-(5-Bromo-3-ethyl-1H-indol-2-yl)-5-((4-methoxybenzyl)thio)-1,3,4-oxadiazole] | – | 181 to 183 |
| Cc1c(-c2nnc(NCc3ccccc3)o2)[nH]c2ccc(Cl)cc12 [ABM315, N-Benzyl-5-(5-chloro-3-methyl-1H-indol-2-yl)-1,3,4-oxadiazol-2-amine] | 0.007 | 220 to 222 |
| Cc1c(-c2nnc(Nc3ccccc3)o2)[nH]c2ccc(Cl)cc12 [ABM311, 5-(5-Chloro-3-methyl-1H-indol-2-yl)-N-phenyl-1,3,4-oxadiazol-2-amine] | 0.002 | 268 to 270 |
| c1ccc(CCSc2nnc(-c3cc4ccccc4[nH]3)o2)cc1 [ABM334, 2-(1H-Indol-2-yl)-5-(phenethylthio)-1,3,4-oxadiazole] | 0.172 | 184 to 186 |
| Cc1c(-c2nnc(SCc3ccccc3)o2)[nH]c2ccc(Cl)cc12 [ABM321, 2-(Benzylthio)-5-(5-chloro-3-methyl-1H-indol-2-yl)-1,3,4-oxadiazole] | 0.093 | 215 to 216 |
| Cc1ccc(CSc2nnc(-c3[nH]c4ccc(Cl)cc4c3C)o2)cc1 [ABM324, 2-(5-Chloro-3-methyl-1H-indol-2-yl)-5-((4-methylbenzyl)thio)-1,3,4-oxadiazole] | – | 212 to 214 |
| CCc1c(-c2nnc(SCc3ccc(OC)cc3)o2)[nH]c2ccc(Cl)cc12 [ABM331, 2-(5-Chloro-3-ethyl-1H-indol-2-yl)-5-((4-methoxybenzyl)thio)-1,3,4-oxadiazole] | 0.056 | 179 to 181 |
| Clc1ccc2[nH]c(-c3nnc(NCc4ccccc4)o3)cc2c1 [ABM314, N-Benzyl-5-(5-chloro-1H-indol-2-yl)-1,3,4-oxadiazol-2-amine] | 0.105 | 245 to 247 |
| CCc1c(-c2nnc(SCc3ccccc3)o2)[nH]c2ccc(Br)cc12 [ABM305, 2-(Benzylthio)-5-(5-bromo-3-ethyl-1H-indol-2-yl)-1,3,4-oxadiazole] | 0.03 | 183 to 185 |
| Cc1c(-c2nnc(SCCCc3ccccc3)o2)[nH]c2ccc(Cl)cc12 [ABM323, 2-(5-Chloro-3-methyl-1H-indol-2-yl)-5-((3-phenylpropyl)thio)-1,3,4-oxadiazole] | 0.263 | 179 to 180 |
| Clc1ccc2[nH]c(-c3nnc(NCCc4ccccc4)o3)cc2c1 [ABM318, 5-(5-Chloro-1H-indol-2-yl)-N-phenethyl-1,3,4-oxadiazol-2-amine] | 0.003 | 235 to 237 |

| Structure (SMILES) | IC50 (cannabinoid CB1 receptor) [µM] | melting point [°C] |
| --- | --- | --- |
| CCc1c(-c2nnc(SCCCc3ccccc3)o2)[nH]c2ccc(Cl)cc12 [ABM330, 2-(5-Chloro-3-ethyl-1H-indol-2-yl)-5-((3-phenylpropyl)thio)-1,3,4-oxadiazole] | – | 170 to 172 |
| COc1ccc(CSc2nnc(-c3[nH]c4ccc(Cl)cc4c3C)o2)cc1 [ABM301, 2-(5-Chloro-3-methyl-1H-indol-2-yl)-5-((4-methoxybenzyl)thio)-1,3,4-oxadiazole] | 0.068 | 210 to 212 |
| CCc1c(-c2nnc(NCCc3ccccc3)o2)[nH]c2ccc(Br)cc12 [ABM320, 5-(5-Bromo-3-ethyl-1H-indol-2-yl)-N-phenethyl-1,3,4-oxadiazol-2-amine] | 0.001 | 170 to 172 |
| CCc1c(-c2nnc(SCCc3ccccc3)o2)[nH]c2ccc(Cl)cc12 [ABM329, 2-(5-Chloro-3-ethyl-1H-indol-2-yl)-5-(phenethylthio)-1,3,4-oxadiazole] | 0.93 | – |
| CCc1c(-c2nnc(SCCCc3ccccc3)o2)[nH]c2ccc(Br)cc12 [ABM326, 2-(5-Bromo-3-ethyl-1H-indol-2-yl)-5-((3-phenylpropyl)thio)-1,3,4-oxadiazole] | – | 134 to 135 |
| Fc1ccc(Nc2nnc(-c3cc4cc(Cl)ccc4[nH]3)o2)cc1 [ABM336, 5-(5-Chloro-1H-indol-2-yl)-N-(4-fluorophenyl)-1,3,4-oxadiazol-2-amine] | 0.005 | 265 to 267 |
| CCc1c(-c2nnc(SCc3ccc(C)cc3)o2)[nH]c2ccc(Cl)cc12 [ABM332, 2-(5-Chloro-3-ethyl-1H-indol-2-yl)-5-((4-methylbenzyl)thio)-1,3,4-oxadiazole] | 0.085 | 195 to 197 |
| c1ccc(CSc2nnc(-c3cc4ccccc4[nH]3)o2)cc1 [ABM333, 2-(Benzylthio)-5-(1H-indol-2-yl)-1,3,4-oxadiazole] | – | 178 to 180 |
| CCc1c(-c2nnc(NCc3ccccc3)o2)[nH]c2ccc(Br)cc12 [ABM316, N-Benzyl-5-(5-bromo-3-ethyl-1H-indol-2-yl)-1,3,4-oxadiazol-2-amine] | 0.012 | 218 to 220 |
| CCc1c(-c2nnc(Nc3ccc(F)cc3)o2)[nH]c2ccc(Cl)cc12 [ABM335, 5-(5-Chloro-3-ethyl-1H-indol-2-yl)-N-(4-fluorophenyl)-1,3,4-oxadiazol-2-amine] | 0.001 | 248 to 250 |
| Cc1c(-c2nnc(Nc3ccc(F)cc3)o2)[nH]c2ccc(Cl)cc12 [ABM337, 5-(5-Chloro-3-methyl-1H-indol-2-yl)-N-(4-fluorophenyl)-1,3,4-oxadiazol-2-amine] | 0.001 | 256 to 258 |
| Cc1c(-c2nnc(SCc3ccc(F)cc3)o2)[nH]c2ccc(Cl)cc12 [ABM339, 2-(5-Chloro-3-methyl-1H-indol-2-yl)-5-((4-fluorobenzyl)thio)-1,3,4-oxadiazole] | 0.27 | 210 to 212 |
| CCc1c(-c2nnc(SCc3ccc(C)cc3)o2)[nH]c2ccc(Br)cc12 [ABM327, 2-(5-Bromo-3-ethyl-1H-indol-2-yl)-5-((4-methylbenzyl)thio)-1,3,4-oxadiazole] | 0.067 | 201 to 203 |
| CCc1c(-c2nnc(NCc3ccccc3)o2)[nH]c2ccc(Cl)cc12 [ABM313, N-Benzyl-5-(5-chloro-3-ethyl-1H-indol-2-yl)-1,3,4-oxadiazol-2-amine] | 0.012 | 216 to 218 |
| Cc1c(-c2nnc(SCCc3ccccc3)o2)[nH]c2ccc(Cl)cc12 [ABM322, 2-(5-Chloro-3-methyl-1H-indol-2-yl)-5-(phenethylthio)-1,3,4-oxadiazole] | 0.417 | 222 to 224 |
